SMILES strings stand for the structures.

Experiment [1] deals with human RORγt ligand binding domain (RORγt LBD) (Homo sapiens (Human), UniProt P51449). As to the kind of experiment: RORγt ThermoFluor assay. A digest of the protocol: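 Thermal shift of His-tagged human RORγt LBD (0.065 mg/mL) with 60 μM 1,8-ANS in 100 mM Hepes pH 7.0, 10 mM NaCl, 2.5 mM GSH, 0.002% Tween-20, heated at 1° C./min. Compounds in 1:2 series from a 10 mM DMSO stock; KD estimated from ΔTm using protein unfolding thermodynamics.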
Chain of human RORγt ligand binding domain (RORγt LBD) (P51449 other isoform, or with tags, fused parts or gaps): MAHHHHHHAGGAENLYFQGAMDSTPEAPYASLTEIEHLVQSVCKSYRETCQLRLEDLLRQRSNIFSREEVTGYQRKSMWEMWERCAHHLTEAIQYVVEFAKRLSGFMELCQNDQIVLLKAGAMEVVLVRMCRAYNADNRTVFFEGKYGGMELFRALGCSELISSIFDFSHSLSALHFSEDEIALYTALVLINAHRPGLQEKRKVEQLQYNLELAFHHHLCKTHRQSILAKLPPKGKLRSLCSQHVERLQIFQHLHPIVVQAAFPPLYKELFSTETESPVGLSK

Experiment [2] has as its target full-length human RORγt (Homo sapiens (Human), UniProt P51449). Description: RORγt (full-length human) reporter assay, conditions A or B. Particulars: for IC50: HEK293T cells, read-out: RORγt (FL) Reporter Assay A or B, IC50; for inhibition at 6 µM: read-out: RORγt (FL) Reporter Assay A or B, % inhibition @ 6 μM, 6 μM compound concentration; for inhibition at 2 µM: 2 μM compound concentration (**); for inhibition at 3 µM: 3 μM compound concentration (*). In kind it is cell-based. The essentials:
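HEK293T cells transiently co-transfected (PEI) with GAL4-DBD–RORγt, GAL4-firefly luciferase and CMV-Renilla reporters; condition A 35,000 cells/well, 170.5 ng DNA/well; condition B 8750 cells/well, 42.6 ng DNA/well.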

The subject of experiment [3] is Th17-dependent learned helplessness. The note with it: mice; cited from earlier work.
Experiment [4] relates to obese diabetic mice. Particulars: cited from earlier work.
Where [5] appears, read: read-out: RORγt (FL) Reporter Assay A or B, % inhibition.

Chain of full-length human RORγt (P51449 other isoform, or with tags, fused parts or gaps): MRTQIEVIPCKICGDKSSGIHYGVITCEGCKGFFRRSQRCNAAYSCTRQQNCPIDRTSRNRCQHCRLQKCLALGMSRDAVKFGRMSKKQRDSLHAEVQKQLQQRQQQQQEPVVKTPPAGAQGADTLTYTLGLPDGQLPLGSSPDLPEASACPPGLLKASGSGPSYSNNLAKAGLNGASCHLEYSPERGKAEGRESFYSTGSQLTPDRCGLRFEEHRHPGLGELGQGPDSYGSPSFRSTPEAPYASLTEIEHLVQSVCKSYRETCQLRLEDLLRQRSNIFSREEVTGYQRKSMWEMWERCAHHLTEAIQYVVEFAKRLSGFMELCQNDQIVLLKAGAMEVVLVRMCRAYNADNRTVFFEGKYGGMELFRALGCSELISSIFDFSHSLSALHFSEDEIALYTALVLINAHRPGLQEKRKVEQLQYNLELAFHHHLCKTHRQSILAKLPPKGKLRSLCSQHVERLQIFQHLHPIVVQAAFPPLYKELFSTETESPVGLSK

In experiment [1], `CCc1nc(C(=O)NC[C@]2(O)CC[C@@H](S(C)(=O)=O)CC2)c(C#N)n1-c1ncc(CC(C)(C)C(F)(F)F)cc1OC` [Example 123, 5-Cyano-2-ethyl-N-(((1s,4s)-1-hydroxy-4-(methylsulfonyl)cyclohexyl)methyl)-1-(3-methoxy-5-(3,3,3-trifluoro-2,2-dimethylpropyl)pyridin-2-yl)-1H-imidazole-4-carboxamide] yielded a Kd of 31 nM. Further, in experiment [2], the IC50 stood at 240 nM and the inhibition at 6 µM came to 102%.
The matching figures for `CCc1nc(C(=O)NC[C@]2(C#N)CC[C@@H](S(C)(=O)=O)CC2)c(C#N)n1-c1ncc(CC(C)(C)C(F)(F)F)cc1OC` [Example 124, 5-Cyano-N-(((1s*,4s*)-1-cyano-4-(methylsulfonyl)cyclohexyl)methyl)-2-ethyl-1-(3-methoxy-5-(3,3,3-trifluoro-2,2-dimethylpropyl)pyridin-2-yl)-1H-imidazole-4-carboxamide]: 37 nM, 84 nM and 105%.
In experiment [1], `CCc1nc(C(=O)NC[C@H]2CC[C@H](S(C)(=O)=O)CC2)c(Cl)n1-c1ncc(CC(C)(C)C(F)(F)F)cc1OC` [Example 125, 5-Chloro-2-ethyl-1-(3-methoxy-5-(3,3,3-trifluoro-2,2-dimethylpropyl)pyridin-2-yl)-N-(((1r,4r)-4-(methylsulfonyl)cyclohexyl)methyl)-1H-imidazole-4-carboxamide] registered a Kd of 1.8 nM. Further, in experiment [2] (setting [5]), the inhibition at 2 µM stood at 99%. For the same compound, in experiment [2], the IC50 came out at 11 nM.
In turn, `CCc1nc(C(=O)NC[C@H]2CC[C@H](S(C)(=O)=O)CC2)c(C)n1-c1ncc(CC(C)(C)C(F)(F)F)cc1OC` [Example 126, 2-Ethyl-1-(3-methoxy-5-(3,3,3-trifluoro-2,2-dimethylpropyl)pyridin-2-yl)-5-methyl-N-(((1r,4r)-4-(methylsulfonyl)cyclohexyl)methyl)-1H-imidazole-4-carboxamide] returned a Kd in experiment [1] of 8.6 nM. In experiment [2], the IC50 was determined as 76 nM and the inhibition at 6 µM was determined as 100%.
`CCc1nc(C(=O)NC[C@]2(O)CC[C@@H](S(C)(=O)=O)CC2)c(C)n1-c1ncc(CC(C)(C)C(F)(F)F)cc1OC` [Example 127, 2-Ethyl-N-(((1s,4s)-1-hydroxy-4-(methylsulfonyl)cyclohexyl)methyl)-1-(3-methoxy-5-(3,3,3-trifluoro-2,2-dimethylpropyl)pyridin-2-yl)-5-methyl-1H-imidazole-4-carboxamide]: in experiment [1], the Kd turned out to be 21 nM. Moreover, in experiment [2], the IC50 was 140 nM and the inhibition at 6 µM stood at 98%.
Consider `CCc1nc(C(=O)NC[C@]2(C#N)CC[C@@H](S(C)(=O)=O)CC2)c(C)n1-c1ncc(CC(C)(C)C(F)(F)F)cc1OC` [Example 128, N-(((1s*,4s*)-1-Cyano-4-(methylsulfonyl)cyclohexyl)methyl)-2-ethyl-1-(3-methoxy-5-(3,3,3-trifluoro-2,2-dimethylpropyl)pyridin-2-yl)-5-methyl-1H-imidazole-4-carboxamide], for which the Kd in experiment [1] turned out to be 37 nM. Further, in experiment [2], the IC50 was 310 nM and the inhibition at 6 µM was 105%.
Consider `COc1cc(CC(C)(C)C(F)(F)F)ccc1-n1cc(C(=O)NC[C@H]2CC[C@H](S(C)(=O)=O)CC2)nc1C` [Example 129, 1-(2-Methoxy-4-(3,3,3-trifluoro-2,2-dimethylpropyl)phenyl)-2-methyl-N-(((1r,4r)-4-(methylsulfonyl)cyclohexyl)methyl)-1H-imidazole-4-carboxamide], for which the Kd in experiment [1] was 45 nM. Moreover, the inhibition at 0.22 µM in experiment [2] (0.22 μM compound concentration (******), read-out: RORγt (FL) Reporter Assay A or B, % inhibition) is 47%. Moreover, the IC50 in experiment [2] came out at 130 nM.
Regarding `COc1cc(CC(C)(C)C(F)(F)F)ccc1-n1cc(C(=O)NC[C@]2(O)CC[C@@H](S(C)(=O)=O)CC2)nc1C` [Example 130, N-(((1s,4s)-1-hydroxy-4-(methylsulfonyl)cyclohexyl)methyl)-1-(2-methoxy-4-(3,3,3-trifluoro-2,2-dimethylpropyl)phenyl)-2-methyl-1H-imidazole-4-carboxamide], binding in experiment [1] was characterised by a dissociation constant (Kd) of 65 nM. In experiment [2] (setting [5]), the inhibition at 2 µM was found to be 73%. The IC50 in experiment [2] stood at 540 nM.
As for `Cc1nc(C(=O)NC[C@H]2CC[C@H](S(C)(=O)=O)CC2)cn1-c1ccc(CC(C)(C)C(F)(F)F)cc1OC(F)F` [Example 131, 1-(2-(Difluoromethoxy)-4-(3,3,3-trifluoro-2,2-dimethylpropyl)phenyl)-2-methyl-N-(((1r,4r)-4-(methylsulfonyl)cyclohexyl)methyl)-1H-imidazole-4-carboxamide], the Kd in experiment [1] came to 97 nM. Moreover, the inhibition at 3 µM in experiment [2] (setting [5]) stood at 73%. In addition, in experiment [2], the half-maximal inhibitory concentration (IC50) is 470 nM.
In experiment [1], `Cc1nc(C(=O)NC[C@]2(O)CC[C@@H](S(C)(=O)=O)CC2)cn1-c1ccc(CC(C)(C)C(F)(F)F)cc1OC(F)F` [Example 132, 1-(2-(Difluoromethoxy)-4-(3,3,3-trifluoro-2,2-dimethylpropyl)phenyl)-N-(((1s,4s)-1-hydroxy-4-(methylsulfonyl)cyclohexyl)methyl)-2-methyl-1H-imidazole-4-carboxamide] yielded a Kd of 340 nM. Further, the inhibition at 3 µM in experiment [2] (setting [5]) turned out to be 87%. Also, the IC50 in experiment [2] was determined as 800 nM.
On to `Cc1nc(C(=O)NC[C@H]2CC[C@H](S(C)(=O)=O)CC2)c(Cl)n1-c1ncc(CC(C)(C)C(F)(F)F)cc1OC(F)F` [Example 133, 5-Chloro-1-(3-(difluoromethoxy)-5-(3,3,3-trifluoro-2,2-dimethylpropyl)pyridin-2-yl)-2-methyl-N-(((1r,4r)-4-(methylsulfonyl)cyclohexyl)methyl)-1H-imidazole-4-carboxamide], for which, in experiment [1], the affinity, expressed as Kd, was 9.5 nM. In addition, the inhibition at 3 µM in experiment [2] (setting [5]) is 72%. In addition, the IC50 in experiment [2] was found to be 37 nM.
`CC(=O)Nc1nc(C)c(S(=O)(=O)Nc2ccc(C(O)(C(F)(F)F)C(F)(F)F)cc2)s1` [SR1001]: the Th17-dependent learned helplessness result in experiment [3] was “reduced”.
Consider `CC(=O)N1CCN(Cc2ccc(-c3ccc(C(O)(C(F)(F)F)C(F)(F)F)cc3)cc2)CC1` [SR1555], for which, in experiment [4], the body weight result is “reduced”, the fat mass result was “significant reduction”, the food intake entry is “modest reduction” and the insulin sensitivity result is recorded as “improved”.

A word on the Kd: it is a measure of binding affinity in units of concentration. The low end stands for tighter binding, the high end for weaker binding. Usually IC50 stands for the concentration that gives 50% inhibition. One may read the inhibition as the relative decrease from the control value, in per cent.

(Values after patent US11345666B2, “Phenyl and pyridinyl substituted imidazoles as modulators of RORγT” (Janssen Pharmaceutica NV, priority 2018, dated 2022).)
